In US20050090397A1, “Herbicides made from substituted aryl ketones” (priority 2001, published 2005):

Experiments:
Assay type in all cases: in vivo
Lindernia pyxidari = assay: Greenhouse test in transplanted paddy rice: herbicidal damage to weed; conditions: applied to water surface, rated 3 weeks after application vs untreated control
Excerpt: (§1) To produce a preparation of active compound, 1 part by weight of an active compound combination according to the invention is mixed with the stated amount of solvent and, after addition of the stated amount of the emulsifier, diluted with water to the desired concentration.
(§2) Vessels for planting (500 cm^2) are filled with soil from a rice field, and in each case 3 rice plants (cultivar: Nipponbare, 2-3-leaf stage, height: about 15 cm) are planted into the middle of vessels for planting. Into the same vessels for planting, seeds are sown. The soil in the vessels is kept moist. After two days, each vessel for planting is flooded to a water depth of 2-3 cm.
(§3) Five days after the rice plants were transplanted, the amount of active compound is, in the preparation described above, applied to the surface of the water in the vessels for planting using a pipette. The water depth in the vessels for planting is maintained at 2-3 cm.
(§4) 3 weeks after the application of active compound, the efficacy is rated in % damage in comparison to the untreated control.
(§5) Active compounds, application rates and results are shown in Table A1 below, the abbreviations used in the table having the following meanings: • (I-65) N-[2,6-dichloro-3-[2,6-dioxocyclohexyl)-carbonyl]-phenyl]pyrrolidone-1-carboxamide • (I-2) N′-[2,6-dichloro-3-[(2,6-dioxo-cyclohexyl)-carbonyl]-phenyl]-N-methoxy-N-methyl-urea • (A) fentrazamide

[1] = tested on: rice plants (cultivar: Nipponbare); assay: Greenhouse test in transplanted paddy rice: crop damage; conditions: rated 3 weeks after application
Excerpt: as §1, §2, §3, §4, §5

DOPJU = assay: Herbicidal damage to weed DOPJU (Table B2); conditions: application rate 50 g/ha
Excerpt: as §1, §2, §3, §4, §5

ROT/N = assay: Herbicidal damage to weed ROT/N (Tables B1, B3); conditions: application rate 50 g/ha

`CON(C)C(=O)Nc1c(Cl)ccc(C(=O)C2C(=O)CCCC2=O)c1Cl` [Example I-2, N′-[2,6-dichloro-3-[(2,6-dioxo-cyclohexyl)-carbonyl]-phenyl]-N-methoxy-N-methyl-urea] was tested, and the “Damage to Lindernia pyxidari (%)” value (Lindernia pyxidari; application rate 200 g/ha) was 60% and the “Damage to rice (%)” value ([1]; application rate 200 g/ha) was 0%.

In the case of `CCN(C(=O)n1nnn(-c2ccccc2Cl)c1=O)C1CCCCC1` [(A), 4-(2-chloro-phenyl)-N-cyclohexyl-N-ethyl-4,5-dihydro-5-oxo-1H-tetrazol-1-carboxamide], the “Damage (to DOPJU) (%)” value (DOPJU) is reported as 50%, the “Damage to Lindernia pyxidari (%)” value (Lindernia pyxidari; application rate 150 g/ha) is reported as 70% and the “Damage (to ROT/N) (%)” value (ROT/N; Table B1) is reported as 60%. For the same compound, the “Damage to rice (%)” value ([1]; application rate 150 g/ha) was 0%.

With `CCC1(CC2(c3cccc(Cl)c3)CO2)C(=O)c2ccccc2C1=O` (stereo not shown) [B, 2-[2-(3-chloro-phenyl)-oxiranyl-methyl]-2-ethyl-1H-indene-1,3 (2H)-dione] the “Damage (to ROT/N) (%)” value (ROT/N; Table B3) was 2%.
